Source: article PMC5788414 (Journal of Medicinal Chemistry, 2017)

Test system: RS4;11 acute leukemia cell line
Assay: Cell growth inhibition
Format: cell-based, human
Settings: for times more potent than 9 in cell growth inhibition: comparator 9

**Q.** For `CCn1nc(C2CC2)cc1Nc1nc(C(=O)NCCCCNC(=O)CNc2cccc3c2C(=O)N(C2CCC(=O)NC2=O)C3=O)nc2[nH]c3cc(-c4c(C)noc4C)c(OC)cc3c12` (stereo not shown) [Compound 10, 4-((3-Cyclopropyl-1-ethyl-1H-pyrazol-5-yl)amino)-7-(3,5-dimethylisoxazol-4-yl)-N-(4-(2-((2-(2,6-dioxopiperidin-3-yl)-1,3-dioxoisoindolin-4-yl)amino)acetamido)butyl)-6-methoxy-9H-pyrimido[4,5-b]indole-2-carboxamide], which “times more potent than 9 in cell growth inhibition” value is on record?
**A.** 2 times

**Q.** For “4-((3-Cyclopropyl-1-ethyl-1H-pyrazol-5-yl)amino)-7-(3,5-dimethylisoxazol-4-yl)-N-(3-((2-(2,6-dioxopiperidin-3-yl)-1,3-dioxoisoindolin-4-yl)amino)propyl)-6-methoxy-9H-pyrimido[4,5-b]indole-2-carboxamide [Compound 16]”, which “times less potent than 15 in cell growth inhibition” value (comparator 15) is on record?
**A.** 5 times

**Q.** `CCn1nc(C2CC2)cc1Nc1nc(C(=O)NCCOCCCc2cccc3c2C(=O)N(C2CCC(=O)NC2=O)C3=O)nc2[nH]c3cc(-c4c(C)noc4C)c(OC)cc3c12` (stereo not shown) [Compound 19, 4-((3-Cyclopropyl-1-ethyl-1H-pyrazol-5-yl)amino)-7-(3,5-dimethylisoxazol-4-yl)-N-(2-(3-(2-(2,6-dioxopiperidin-3-yl)-1,3-dioxoisoindolin-4-yl)propoxy)ethyl)-6-methoxy-9H-pyrimido[4,5-b]indole-2-carboxamide] was tested. Which “times less potent than 18 in cell growth inhibition” value (comparator 18) did it give?
**A.** 2 times

**Q.** Which “times less potent than 12 in cell growth inhibition” value (comparator 12) does the source give for `CCn1nc(C2CC2)cc1Nc1nc(C(=O)NCCCCCCNc2cccc3c2C(=O)N(C2CCC(=O)NC2=O)C3=O)nc2[nH]c3cc(-c4c(C)noc4C)c(OC)cc3c12` (stereo not shown) [Compound 13, 4-((3-Cyclopropyl-1-ethyl-1H-pyrazol-5-yl)amino)-7-(3,5-dimethylisoxazol-4-yl)-N-(6-((2-(2,6-dioxopiperidin-3-yl)-1,3-dioxoisoindolin-4-yl)amino)hexyl)-6-methoxy-9H-pyrimido[4,5-b]indole-2-carboxamide] here?
**A.** 3 times

**Q.** How did the “times less potent than 19 in cell growth inhibition” value (comparator 19) turn out when `CCn1nc(C2CC2)cc1Nc1nc(C(=O)NCCOCCCc2cccc3c2CN(C2CCC(=O)NC2=O)C3=O)nc2[nH]c3cc(-c4c(C)noc4C)c(OC)cc3c12` (stereo not shown) [Compound 22, 4-((3-Cyclopropyl-1-ethyl-1H-pyrazol-5-yl)amino)-7-(3,5-dimethylisoxazol-4-yl)-N-(2-(3-(2-(2,6-dioxopiperidin-3-yl)-1-oxoisoindolin-4-yl)propoxy)ethyl)-6-methoxy-9H-pyrimido[4,5-b]indole-2-carboxamide] was run?
**A.** 2 times

**Q.** `CCn1nc(C2CC2)cc1Nc1nc(C(=O)NCCCCCCCOc2cccc3c2C(=O)N(C2CCC(=O)NC2=O)C3=O)nc2[nH]c3cc(-c4c(C)noc4C)c(OC)cc3c12` (stereo not shown) [Compound 11, 4-((3-Cyclopropyl-1-ethyl-1H-pyrazol-5-yl)amino)-7-(3,5-dimethylisoxazol-4-yl)-N-(7-((2-(2,6-dioxopiperidin-3-yl)-1,3-dioxoisoindolin-4-yl)oxy)heptyl)-6-methoxy-9H-pyrimido[4,5-b]indole-2-carboxamide] was tested. Which “times more potent than 9 in cell growth inhibition” value did it give?
**A.** 10 times

**Q.** Which “times less potent than 14 in cell growth inhibition” value (comparator 14) does the source give for `CCn1nc(C2CC2)cc1Nc1nc(C(=O)NCCCCNc2cccc3c2C(=O)N(C2CCC(=O)NC2=O)C3=O)nc2[nH]c3cc(-c4c(C)noc4C)c(OC)cc3c12` (stereo not shown) [Compound 15, 4-((3-Cyclopropyl-1-ethyl-1H-pyrazol-5-yl)amino)-7-(3,5-dimethylisoxazol-4-yl)-N-(4-((2-(2,6-dioxopiperidin-3-yl)-1,3-dioxoisoindolin-4-yl)amino)butyl)-6-methoxy-9H-pyrimido[4,5-b]indole-2-carboxamide] here?
**A.** ~3 times
